Experimental data as given in US6030955A, “Methods of affecting intracellular phosphorylation of tyrosine using phosphorothioate oligonucleotides, and antiangiogenic and antiproliferative uses thereof” (The Trustees of Columbia University in The City of New York …, priority 1996, dated 2000).

System: cell surface flk-1
Experiment: FACS analysis of blockade of anti-flk-1 MAb binding to C441 cells
Design: species or system mouse/human
Settings: cells preincubated with 10 μg/ml heparin
Method: For binding studies, C441 cells were removed with 2 mM EDTA in PBS, washed with cold Hanks balanced salt solution supplemented with 1% BSA (HBSS-BSA) and then resuspended in 100 μl of the same buffer at a concentration of 1 million cells per sample. Where indicated, cells were incubated with 2 μM oligodeoxynucleotides of 10 μg/ml heparin. After a 30 minute incubation on ice, cells were washed and reincubated for 30 minutes with 10 μg of the appropriate MAb. After washing, a 1:40 dilution of goat anti-mouse lgG conjugated to FITC (TAGO) was added for a final 30 minute incubation on ice. Cells were then analyzed on a Coulter Epics Elite Cytometer.

**Q.** For heparin, which “binding of anti-flk-1 MAb 73 to C441 cells” value is on record?
**A.** Its value is “inhibition”.

**Q.** What about the “binding of anti-flk-1 MAb 115 to C441 cells” value of the same substance?
**A.** Its value is “inhibition”.
